This test concerns the target T1, Scytalone dehydratase (Magnaporthe oryzae (strain 70-15 / FGSC 8958) (Rice blast fungus)(Pyricularia oryzae), UniProt P56221).
T1 sequence (P56221 whole entry): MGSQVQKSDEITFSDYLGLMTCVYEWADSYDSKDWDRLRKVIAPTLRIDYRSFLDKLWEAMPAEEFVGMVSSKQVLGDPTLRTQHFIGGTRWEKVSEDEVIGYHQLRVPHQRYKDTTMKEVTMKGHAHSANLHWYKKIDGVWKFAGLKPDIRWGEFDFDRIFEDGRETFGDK
Description: Compound was evaluated for its inhibition constant against scytalone dehydratase (SD). Set-up: species or system Pyricularia grisea.

The term Ki denotes a measure of affinity in units of concentration, obtained from inhibition or displacement. In turn, `O=C(/C=C/c1ccccc1)NC(=S)Nc1ccc(S(=O)(=O)Nc2cc(F)ccc2F)cc1` returned a Ki of 6.4 nM.
